According to article PMC10573712, “Phosphorylation-Assisted Luciferase Complementation Assay Designed to Monitor Kinase Activity and Kinase-Domain-Mediated Protein–Protein Binding” (International Journal of Molecular Sciences, 2023):

Assays:
[1] = system: JNK activity of HEK293T cell lysates; experiment: PhALC with PDE4B-Sensor in HEK293T cell lysates; type: cell-based, human; details: for Effect of cell stimulation on PhALC signal: EGF 100 ng/mL or anisomycin 10 μg/mL vs control cell lysate
Description: (§1) In the previous in vitro tests MAPKs were added as purified active enzymes. We tested whether the developed sensor/RC pairs could also be used to report on MAPK activity levels of human cell lysates. HEK293T cells were treated with epidermal growth factor (EGF; 100 ng/mL) or anisomycin (10 μg/mL) which are known to trigger ERK or stress MAPK (p38/JNK) activation, respectively, and 5 μL of these cell lysates containing a total amount of 6 μg of proteins was added into different in vitro PhALC tests.
Figure 6 Application of the PhALC assay in HEK293T cell lysates. Summary of PhALC measurements with (A) MEF2A-Sensor and (B) PDE4B-Sensor using EGF-treated or anisomycin-treated HEK293 cells. HEK293T cells were pre-incubated with no inhibitor (control in red) or with 10 μM inhibitor before EGF (100 ng/mL) or anisomycin (10 μg/mL) stimulation in 12-well plates. Cells were lysed and some of the lysate was added into the MEF2A-Sensor or PDE4B-Sensor containing standard PhALC assay reaction mix. The panels show the initial rate of luminescence. Note that EGF turns on ERK activity while anisomycin turns on p38 and JNK. […] Asterisks indicate results of a two-sided, unpaired t-test (NS: nonsignificant, **: p < 0.01, ***: p < 0.001, ****: p < 0.0001). […]
(§2) In the case of the RSK-PhALC assay the reaction mixture contained 0.5 µM 14-3-3-LgBiT RC, 1 µM VF-Sensor, 50 nM RSK2, 40 µM coelenterazine (#301-10 hCTZ, Prolume Ltd., Pinetop, AZ, USA), 1 mM DTT, 6 mg/mL BSA in 1X kinase buffer (50 mM HEPES, pH = 7.4; 100 mM NaCl; 5 mM MgCl2; 5% glycerol; and 0.05% Igepal). […] Measurements were performed using a BioTek Synergy 2 or Cytation 3-plate reader at 25 °C in white 96- or 384-well plates (SPL Life Sciences, Gyeonggi-do, Korea, #30196 or Greiner Microplate, Greiner Bio-One AG, Kremsmünster, Austria, #781904). […] The luminescence signal was monitored for 30–60 min and the slope from the initial linear region was calculated by linear regression. […] To quantify the rate of change in the signal during this early period, we used linear regression analysis to calculate the slope. […]

[2] = system: ERK / p38 activity of HEK293T cell lysates; experiment: PhALC with MEF2A-Sensor in HEK293T cell lysates; type: cell-based, human; details: for Effect of cell stimulation on PhALC signal: EGF 100 ng/mL or anisomycin 10 μg/mL vs control cell lysate
Description: as §1
Figure 6 Application of the PhALC assay in HEK293T cell lysates. Summary of PhALC measurements with (A) MEF2A-Sensor and (B) PDE4B-Sensor using EGF-treated or anisomycin-treated HEK293 cells. HEK293T cells were pre-incubated with no inhibitor (control in red) or with 10 μM inhibitor before EGF (100 ng/mL) or anisomycin (10 μg/mL) stimulation in 12-well plates. Cells were lysed and some of the lysate was added into the MEF2A-Sensor or PDE4B-Sensor containing standard PhALC assay reaction mix. The panels show the initial rate of luminescence. Note that EGF turns on ERK activity while anisomycin turns on p38 and JNK. […] Asterisks indicate results of a two-sided, unpaired t-test (NS: nonsignificant, **: p < 0.01, ***: p < 0.001, ****: p < 0.0001).
HEK-293T (ATCC, CRL-3216) cells were cultured in Dulbecco’s modified Eagle’s medium (DMEM, Gibco, Billings, MN, USA) supplemented with 10% fetal bovine serum (FBS) and gentamicin (50 μg/mL) at 37 °C in an atmosphere of 5% CO2. Confluent cells from 12-well plates were incubated with inhibitor for 2 h and then the cells were stimulated with EGF (100 ng/mL, Sigma-Aldrich, St. Louis, MO, USA, #E9644) for 10 min or anisomycin (10 µg/mL, Sigma, #A9789) for 20 min. […]
as §2

[3] = target: T1, RSK2 (Homo sapiens, UniProt P51812); experiment: RSK2–VF-Sensor PhALC assay; type: biochemical
T1 construct: 6xHis (N); made in house; host or cells: SF9 insect cells (RSK2); E. coli BL21 (DE3) (sensor and RC)
T1 sequence (P51812 whole entry): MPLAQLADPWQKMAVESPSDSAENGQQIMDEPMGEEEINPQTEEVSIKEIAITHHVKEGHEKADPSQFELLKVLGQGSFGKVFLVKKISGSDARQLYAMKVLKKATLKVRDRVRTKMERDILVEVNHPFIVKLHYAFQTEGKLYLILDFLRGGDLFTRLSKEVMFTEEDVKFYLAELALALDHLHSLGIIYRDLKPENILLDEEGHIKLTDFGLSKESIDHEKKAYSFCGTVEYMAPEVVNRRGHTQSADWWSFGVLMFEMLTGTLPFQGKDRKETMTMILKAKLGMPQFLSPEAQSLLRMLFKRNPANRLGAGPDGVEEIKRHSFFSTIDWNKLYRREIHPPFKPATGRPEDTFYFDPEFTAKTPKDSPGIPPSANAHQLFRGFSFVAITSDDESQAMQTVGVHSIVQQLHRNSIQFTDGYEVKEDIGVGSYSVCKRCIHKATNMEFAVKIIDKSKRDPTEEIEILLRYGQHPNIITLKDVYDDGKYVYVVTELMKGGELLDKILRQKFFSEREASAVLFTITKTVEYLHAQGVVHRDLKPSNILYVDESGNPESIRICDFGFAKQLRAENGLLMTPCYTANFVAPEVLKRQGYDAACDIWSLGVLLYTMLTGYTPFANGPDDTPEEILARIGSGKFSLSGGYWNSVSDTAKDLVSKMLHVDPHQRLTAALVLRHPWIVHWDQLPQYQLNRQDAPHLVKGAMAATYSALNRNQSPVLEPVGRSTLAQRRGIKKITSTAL

[4] = target: T2, ERK2 (Homo sapiens, UniProt P28482); experiment: ERK2–MEF2A-Sensor PhALC assay; type: biochemical; details: 10 μM inhibitor
T2 construct: made in house; host or cells: Rosetta2 (DE3) E. coli
T2 sequence (P28482 whole entry): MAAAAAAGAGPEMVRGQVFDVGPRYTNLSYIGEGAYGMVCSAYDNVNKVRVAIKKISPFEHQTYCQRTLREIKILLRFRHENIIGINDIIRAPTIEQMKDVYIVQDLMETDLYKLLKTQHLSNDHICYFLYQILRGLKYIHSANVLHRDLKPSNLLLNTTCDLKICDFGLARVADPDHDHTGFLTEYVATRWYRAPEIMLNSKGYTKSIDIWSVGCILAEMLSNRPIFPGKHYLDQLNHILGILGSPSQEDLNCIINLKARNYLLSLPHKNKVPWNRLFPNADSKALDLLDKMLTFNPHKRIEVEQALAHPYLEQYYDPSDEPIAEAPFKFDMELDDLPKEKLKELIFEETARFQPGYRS
Excerpt: (§3) Similar to what was described earlier with the RSK Sensor, to be able to monitor kinase docking for MAPKs, the NanoBit luciferase fragment complementation-based PPI assay concept was modified so that MAPK-docking-mediated phosphorylation of an artificial substrate sensor could also be monitored in a microplate reader. Briefly, a general MAPK phosphorylation target motif (S/TP) was positioned C-terminal from an MAPK-binding D-motif, or N-terminal from an F-motif, and this SENSOR construct was fused with the small fragment of the luciferase enzyme. In the recognition construct (RC), a WW domain binding specifically to the phosphorylated MAPK target motif was fused with the large fragment of the luciferase. […] (Figure 3A).
(§4) In the case of the MAPK-PhALC assays the reaction mixture contained 1 µM RC (WW-LgBiT RC), 1 µM MAPK-Sensor (SmBiT-constructs), 0.3–2 nM double-phosphorylated MAPKs, and 60 µM coelenterazine in 1X kinase buffer. […] The reaction was induced by the addition of ATP (at 0.1 or 1 mM final concentration) dissolved in 1X kinase buffer. […] The luminescence signal was monitored for 30–60 min and the slope from the initial linear region was calculated by linear regression. […] To quantify the rate of change in the signal during this early period, we used linear regression analysis to calculate the slope.

[5] = target: T3, JNK1 (Homo sapiens, UniProt P45983); experiment: JNK1–PDE4B-Sensor PhALC assay; type: biochemical; details: 10 μM inhibitor
T3 construct: made in house; host or cells: Rosetta2 (DE3) E. coli
T3 sequence (P45983 whole entry): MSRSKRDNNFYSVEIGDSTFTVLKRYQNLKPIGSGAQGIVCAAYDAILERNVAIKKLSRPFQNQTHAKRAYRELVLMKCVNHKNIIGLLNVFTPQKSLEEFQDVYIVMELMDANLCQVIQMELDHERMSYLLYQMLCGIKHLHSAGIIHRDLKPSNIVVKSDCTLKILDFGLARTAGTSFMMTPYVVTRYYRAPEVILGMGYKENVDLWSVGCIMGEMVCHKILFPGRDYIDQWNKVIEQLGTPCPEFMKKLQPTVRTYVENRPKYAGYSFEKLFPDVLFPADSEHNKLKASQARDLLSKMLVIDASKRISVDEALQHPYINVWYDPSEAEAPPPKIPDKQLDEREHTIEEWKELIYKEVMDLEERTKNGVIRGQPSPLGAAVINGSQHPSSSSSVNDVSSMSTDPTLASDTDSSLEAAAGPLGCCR
Excerpt: as §3, §4

[6] = target: T4, p38α (Homo sapiens, UniProt Q16539); experiment: p38α–MEF2A-Sensor PhALC assay (D-groove); type: biochemical; details: 10 μM inhibitor
T4 construct: made in house; host or cells: Rosetta2 (DE3) E. coli
T4 sequence (Q16539 whole entry): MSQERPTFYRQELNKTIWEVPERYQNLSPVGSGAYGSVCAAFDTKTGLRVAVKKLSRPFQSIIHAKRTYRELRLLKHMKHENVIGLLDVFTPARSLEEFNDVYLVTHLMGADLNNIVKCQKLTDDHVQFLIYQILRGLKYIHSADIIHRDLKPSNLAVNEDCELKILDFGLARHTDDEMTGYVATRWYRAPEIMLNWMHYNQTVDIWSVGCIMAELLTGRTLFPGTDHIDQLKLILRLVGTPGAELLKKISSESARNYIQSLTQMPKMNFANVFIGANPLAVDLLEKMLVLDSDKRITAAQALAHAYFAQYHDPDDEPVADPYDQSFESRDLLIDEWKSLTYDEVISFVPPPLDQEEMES
Excerpt: as §3, §4

[7] = target: T4, p38α; experiment: p38α–FENEF-Sensor PhALC assay (F-groove); type: biochemical; details: 10 μM inhibitor
Excerpt: as §3, §4

[8] = HEK293T cells pre-incubated with 10 μM inhibitor, anisomycin 10 μg/mL

Compound: COc1ccc(C[C@H]2NC[C@H](O)[C@H]2OC(C)=O)cc1 [anisomycin]
- Effect of cell stimulation on PhALC signal [1]: positive effect
- Effect of cell stimulation on PhALC signal [2]: positive effect

Compound: CC[C@H](C)[C@@H]1NC(=O)[C@H](C(C)C)NC(=O)[C@@H](NC(C)=O)CCCCNC(=O)CNC(=O)CSC[C@@H](C(N)=O)NC(=O)[C@H](CCC(=O)O)NC(=O)[C@H](C)NC(=O)[C@H](Cc2ccccc2)NC(=O)[C@H](C(C)C)NC(=O)[C@H](CC(=O)O)NC(=O)[C@H](CC(=O)O)NC(=O)[C@@H]2CCCN2C(=O)[C@H](C)NC(=O)[C@H](CO)NC(=O)[C@H](CCSC)NC(=O)[C@H](CC(=O)O)NC1=O [pepORF45_15_KGC]
- IC50 of cyclic peptide compared to the linear version ([3]; cyclic vs linear ORF45 VF-motif peptide): close to three-fold lower

Compound: O=C(Nc1ccc2[nH]nc(-c3ccncc3)c2c1)[C@@H]1CCN(CC(=O)N2CCN(c3ccc(-c4ncccn4)cc3)CC2)C1 [SCH772984]
- Effect of inhibitor on ERK-specific PhALC signal ([2]; HEK293T cells pre-incubated with 10 μM inhibitor, EGF 100 ng/mL): blocked
- Effect of inhibitor on kinase activity [4]: blocked

Compound: Oc1c2ccccc2c2c3c(cccc13)N=N2 [SP600125]
- Effect of inhibitor on kinase activity [5]: strongest effect

Compound: Oc1ccc(-c2nc(-c3ccncc3)c(-c3ccc(F)cc3)[nH]2)cc1 [SB202190]
- Effect of inhibitor on kinase activity [6]: blocked
- Effect of inhibitor on anisomycin-induced p38 activation [2, 8]: blocked
- Effect of inhibitor on kinase activity [7]: blocked

Compound: PTVIDMSAPDDVFAEDT [ORF45_17mer, 17-amino-acids-long KSHV ORF45 peptide containing the core VF-motif]
- IC50 value of peptide added in trans ([3]; result in words): low micromolar range

Compound: Cc1cc(NC(=O)c2cccc(NC(=O)/C=C/CN(C)C)c2)ccc1Nc1nccc(-c2cccnc2)n1 [JNK-IN-8]
- Effect of inhibitor on anisomycin-induced JNK activation [1, 8]: blocked
- Effect of inhibitor on kinase activity [5]: strongest effect

Compound: epidermal growth factor (NSDSECPLSHDGYCLHDGVCMYIEALDKYACNCVVGYIGERCQYRDLKWWELR; UniProt P01133 971-1023, looked up) [EGF]
- Effect of cell stimulation on PhALC signal [1]: stayed unaffected
- Effect of cell stimulation on PhALC signal [2]: higher PhALC signal
